Series [1] deals with mouse embryonic stem cells. As to the kind of experiment: Differentiation of mouse embryonic stem cells on IKVAV concentration gradient PEG hydrogels. It counts as cell-based. The settings on record: 3 days of differentiation.
The subject of the next series is hiPSC derived NSC. In words: hiPSC derived NSC in 3D matrix with coupled IKVAV. It counts as cell-based, human. The settings on record: peptide coupled within a 3D matrix, preliminary data.

No end group written: not given here.

The source of these data is patent US20180291123A1, “DI-FUNCTIONALIZED HYALURONIC ACID DERIVATIVES AND HYDROGELS THEREOF” (THE BROAD OF REGENTS OF THE UNIVERSITY OF TEXAS SYSTEM, priority 2015, published 2018).

Regarding IKVAV (also: tethered in PEG hydrogel), the toxicity result in series [1] (high concentration of tethered peptide) was “toxicity evident”. The neurite extension entry in series [1] (low concentration of tethered peptide) is recorded as “lack of neurite extension”. In addition, the “effect on cellular survival, neurite extension and differentiation” value in series [1] (tethered peptide concentration gradient in PEG hydrogels, β3 tubulin staining) is given as “concentration dependent effect”. Moreover, in the series on hiPSC derived NSC, the “survival and neurite extension” value is “can support survival and neurite extension”.
